Like-named read-outs stand apart in the source and are kept apart here.
Tested on: MDA-MB-231 (human breast cancer) cell line
Experiment: MTT cell viability assay in MDA-MB-231 cells
Assay type: cell-based
Details: 72 h
Method: Thus, we screened the synthesized library of pyrazolo[1,5-a]pyrimidin-7-ols 4a–4i. Anticancer activity (in terms of growth inhibition/decreased cell viability with respect to control) of all synthesized compounds (n = 9) was investigated by MTT assay in MDA-MB-231 (human breast cancer) cell line at different concentrations for 72 h. […] Thus, it was aimed to investigate the anticancer activity of a synthesized library of triazole-linked glycohybrids of pyrazolo[1,5-a]pyrimidines. […] The MTT assay was used to investigate the anticancer activity of twenty-seven synthesized compounds on the growth inhibition and decrement in cell viability of MDA-MB-231 (human breast cancer). Different concentrations were tested for 72 h, and the results were compared to a control. MDA-MB-231, a human breast cancer cell line, was cultured under standard conditions. Specifically, they were grown in Dulbecco’s Modified Eagle’s Medium (DMEM) supplemented with 10% heat-inactivated Fetal Bovine Serum (FBS) and 1% penicillin–streptomycin. The cells were maintained as a monolayer in a 100 mm culture plate and were used for experiments before reaching their 8th passage. Subculturing was performed every third-day using trypsin EDTA treatment. All incubation and maintenance procedures were carried out in a humidified CO2 incubator at 37 °C. To evaluate cell viability, the MTT assay was conducted following standard procedures. After 72 h of cell incubation with or without each compound, cell viability was assessed using MTT (3-(4,5-dimethylthiazol-2-yl)-2,5-diphenyltetrazolium bromide), which is a colorimetric method for determining the number of viable cells in various assays including proliferation, cytotoxicity, or chemosensitivity. The MTT reagent was added to the cells after removal of the medium and incubated for 3 h at 37 °C in the CO2 incubator. The formazan product, which is […] in the tissue culture medium, was dissolved in DMSO, and the absorbance of the formazan product was directly measured at 595 nm using a multimode plate reader without additional processing. The absorbance values are directly proportional to the number of viable cells in culture. The percentage of viable cells in each group was determined relative to the untreated control cells.

[1] = Table 2, MDA-MB-231, MTT, read-out: Cell viability (%) ± SD
[2] = Table 1, MDA-MB-231, MTT, read-out: Cell Viability (%) ± SD

CC(=O)OC[C@H]1O[C@H](n2cc(COc3cc(-c4ccc(F)cc4)nc4ccnn34)nn2)[C@@H](OC(C)=O)[C@@H](OC(C)=O)[C@@H]1OC(C)=O [Compound 11e, (2R,3R,4S,5S,6S)-2-(acetoxymethyl)-6-(4-(((5-(4-fluorophenyl)pyrazolo[1,5-a]pyrimidin-7-yl)oxy)methyl)-1H-1,2,3-triazol-1-yl)tetrahydro-2H-pyran-3,4,5-triyl triacetate]
viability at 10 µM [1]: 98.4 ± 3.62%
viability at 25 µM [1]: 90.1 ± 6.77%
viability at 50 µM [1]: 88.6 ± 6.27%

CC(=O)OC[C@H]1O[C@H](n2cc(COc3cc(-c4ccc5c(c4)OCO5)nc4ccnn34)nn2)[C@@H](OC(C)=O)[C@@H](OC(C)=O)[C@@H]1OC(C)=O [Compound 11i, (2R,3R,4S,5S,6S)-2-(acetoxymethyl)-6-(4-(((5-(benzo[d][1,3]dioxol-5-yl)pyrazolo[1,5-a]pyrimidin-7-yl)oxy)methyl)-1H-1,2,3-triazol-1-yl)tetrahydro-2H-pyran-3,4,5-triyl triacetate]
viability at 10 µM [1]: 97.5 ± 4.91%
viability at 25 µM [1]: 95.3 ± 3.6%
viability at 50 µM [1]: 93.9 ± 9.08%

CC(=O)OC[C@H]1O[C@@H](n2cc(COc3cc(-c4ccc(F)cc4)nc4ccnn34)nn2)[C@H](OC(C)=O)[C@@H](OC(C)=O)[C@H]1OC(C)=O [Compound 10e, (2R,3S,4S,5R,6R)-2-(acetoxymethyl)-6-(4-(((5-(4-fluorophenyl)pyrazolo[1,5-a]pyrimidin-7-yl)oxy)methyl)-1H-1,2,3-triazol-1-yl)tetrahydro-2H-pyran-3,4,5-triyl triacetate]
viability at 10 µM [1]: 78.4 ± 9.97%
viability at 25 µM [1]: 68.6 ± 10.1%
viability at 50 µM [1]: 71.3 ± 6.17%

CC(=O)OC[C@H]1O[C@@H](n2cc(COc3cc(-c4ccc(F)cc4)nc4ccnn34)nn2)[C@H](OC(C)=O)[C@@H](OC(C)=O)[C@@H]1OC(C)=O [Compound 9e, (2R,3R,4S,5R,6R)-2-(acetoxymethyl)-6-(4-(((5-(4-fluorophenyl)pyrazolo[1,5-a]pyrimidin-7-yl)oxy)methyl)-1H-1,2,3-triazol-1-yl)tetrahydro-2H-pyran-3,4,5-triyl triacetate]
viability at 10 µM [1]: 98.6 ± 2.25%
viability at 25 µM [1]: 92.2 ± 1.96%
viability at 50 µM [1]: 81.2 ± 9.22%

CC(=O)OC[C@H]1O[C@@H](n2cc(COc3cc(-c4ccc(C(F)(F)F)cc4)nc4ccnn34)nn2)[C@H](OC(C)=O)[C@@H](OC(C)=O)[C@@H]1OC(C)=O [Compound 9f, (2R,3R,4S,5R,6R)-2-(acetoxymethyl)-6-(4-(((5-(4-(trifluoromethyl)phenyl)pyrazolo[1,5-a]pyrimidin-7-yl)oxy)methyl)-1H-1,2,3-triazol-1-yl)tetrahydro-2H-pyran-3,4,5-triyl triacetate]
viability at 10 µM [1]: 92.2 ± 8.51%
viability at 25 µM [1]: 88.8 ± 8.75%
viability at 50 µM [1]: 73.8 ± 7.02%

CC(=O)OC[C@H]1O[C@@H](n2cc(COc3cc(-c4ccc5c(c4)OCO5)nc4ccnn34)nn2)[C@H](OC(C)=O)[C@@H](OC(C)=O)[C@@H]1OC(C)=O [Compound 9i, (2R,3R,4S,5R,6R)-2-(acetoxymethyl)-6-(4-(((5-(benzo[d][1,3]dioxol-5-yl)pyrazolo[1,5-a]pyrimidin-7-yl)oxy)methyl)-1H-1,2,3-triazol-1-yl)tetrahydro-2H-pyran-3,4,5-triyl triacetate]
viability at 10 µM [1]: 85.1 ± 4.09%
viability at 25 µM [1]: 82.5 ± 2.58%
viability at 50 µM [1]: 80.4 ± 7.36%

COc1ccc(-c2cc(OCc3cn([C@@H]4O[C@H](COC(C)=O)[C@@H](OC(C)=O)[C@H](OC(C)=O)[C@H]4OC(C)=O)nn3)n3nccc3n2)cc1 [Compound 9b, (2R,3R,4S,5R,6R)-2-(acetoxymethyl)-6-(4-(((5-(4-methoxyphenyl)pyrazolo[1,5-a]pyrimidin-7-yl)oxy)methyl)-1H-1,2,3-triazol-1-yl)tetrahydro-2H-pyran-3,4,5-triyl triacetate]
viability at 10 µM [1]: 95.4 ± 5.38%
viability at 25 µM [1]: 85.5 ± 6.74%
viability at 50 µM [1]: 83.4 ± 4.16%

CC(=O)OC[C@H]1O[C@@H](n2cc(COc3cc(-c4ccc(C)cc4)nc4ccnn34)nn2)[C@H](OC(C)=O)[C@@H](OC(C)=O)[C@H]1OC(C)=O [Compound 10a, (2R,3S,4S,5R,6R)-2-(acetoxymethyl)-6-(4-(((5-(p-tolyl)pyrazolo[1,5-a]pyrimidin-7-yl)oxy)methyl)-1H-1,2,3-triazol-1-yl)tetrahydro-2H-pyran-3,4,5-triyl triacetate]
viability at 10 µM [1]: 81.7 ± 8.36%
viability at 25 µM [1]: 78.5 ± 6.73%
viability at 50 µM [1]: 68.8 ± 10.4%

CC(=O)OC[C@H]1O[C@H](n2cc(COc3cc(-c4ccc(C(F)(F)F)cc4)nc4ccnn34)nn2)[C@@H](OC(C)=O)[C@@H](OC(C)=O)[C@@H]1OC(C)=O [Compound 11f, (2R,3R,4S,5S,6S)-2-(acetoxymethyl)-6-(4-(((5-(4-(trifluoromethyl)phenyl)pyrazolo[1,5-a]pyrimidin-7-yl)oxy)methyl)-1H-1,2,3-triazol-1-yl)tetrahydro-2H-pyran-3,4,5-triyl triacetate]
viability at 10 µM [1]: 79.6 ± 4.7%
viability at 25 µM [1]: 74.5 ± 4.44%
viability at 50 µM [1]: 86.5 ± 7.27%

CC(=O)OC[C@H]1O[C@@H](n2cc(COc3cc(-c4ccc5c(c4)OCO5)nc4ccnn34)nn2)[C@H](OC(C)=O)[C@@H](OC(C)=O)[C@H]1OC(C)=O [Compound 10i, (2R,3S,4S,5R,6R)-2-(acetoxymethyl)-6-(4-(((5-(benzo[d][1,3]dioxol-5-yl)pyrazolo[1,5-a]pyrimidin-7-yl)oxy)methyl)-1H-1,2,3-triazol-1-yl)tetrahydro-2H-pyran-3,4,5-triyl triacetate]
viability at 10 µM [1]: 100 ± 9.67%
viability at 25 µM [1]: 99.25 ± 0.34%
viability at 50 µM [1]: 98.5 ± 1.88%

COc1ccc(-c2cc(O)n3nccc3n2)cc1 [Compound 4b]
viability at 10 µM [2]: 85.1 ± 8.53%
viability at 25 µM [2]: 80.1 ± 3.51%
viability at 50 µM [2]: 70.5 ± 5.69%

CC(=O)OC[C@H]1O[C@@H](n2cc(COc3cc(-c4ccc(C(C)C)cc4)nc4ccnn34)nn2)[C@H](OC(C)=O)[C@@H](OC(C)=O)[C@@H]1OC(C)=O [Compound 9g, (2R,3R,4S,5R,6R)-2-(acetoxymethyl)-6-(4-(((5-(4-isopropylphenyl)pyrazolo[1,5-a]pyrimidin-7-yl)oxy)methyl)-1H-1,2,3-triazol-1-yl)tetrahydro-2H-pyran-3,4,5-triyl triacetate]
viability at 10 µM [1]: 110 ± 13.5%
viability at 25 µM [1]: 103 ± 3.51%
viability at 50 µM [1]: 68.5 ± 17.7%

Oc1cc(-c2ccc(Br)cc2)nc2ccnn12 [Compound 4c]
viability at 10 µM [2]: 100 ± 4.01%
viability at 25 µM [2]: 99.1 ± 3.93%
viability at 50 µM [2]: 96.5 ± 2.89%

CC(=O)OC[C@H]1O[C@H](n2cc(COc3cc(-c4ccc(Br)cc4)nc4ccnn34)nn2)[C@@H](OC(C)=O)[C@@H](OC(C)=O)[C@@H]1OC(C)=O [Compound 11c, (2R,3R,4S,5S,6S)-2-(acetoxymethyl)-6-(4-(((5-(4-bromophenyl)pyrazolo[1,5-a]pyrimidin-7-yl)oxy)methyl)-1H-1,2,3-triazol-1-yl)tetrahydro-2H-pyran-3,4,5-triyl triacetate]
viability at 10 µM [1]: 81.3 ± 7.65%
viability at 25 µM [1]: 76.5 ± 6.58%
viability at 50 µM [1]: 72.5 ± 8.45%

CC(=O)OC[C@H]1O[C@@H](n2cc(COc3cc(-c4ccc5ccccc5c4)nc4ccnn34)nn2)[C@H](OC(C)=O)[C@@H](OC(C)=O)[C@H]1OC(C)=O [Compound 10h, (2R,3S,4S,5R,6R)-2-(acetoxymethyl)-6-(4-(((5-(naphthalen-2-yl)pyrazolo[1,5-a]pyrimidin-7-yl)oxy)methyl)-1H-1,2,3-triazol-1-yl)tetrahydro-2H-pyran-3,4,5-triyl triacetate]
viability at 10 µM [1]: 75 ± 8.31%
viability at 25 µM [1]: 89.6 ± 9.91%
viability at 50 µM [1]: 57.7 ± 10.8%

COc1ccc(-c2cc(OCc3cn([C@H]4O[C@H](COC(C)=O)[C@@H](OC(C)=O)[C@H](OC(C)=O)[C@@H]4OC(C)=O)nn3)n3nccc3n2)cc1 [Compound 11b, (2R,3R,4S,5S,6S)-2-(acetoxymethyl)-6-(4-(((5-(4-methoxyphenyl)pyrazolo[1,5-a]pyrimidin-7-yl)oxy)methyl)-1H-1,2,3-triazol-1-yl)tetrahydro-2H-pyran-3,4,5-triyl triacetate]
viability at 10 µM [1]: 99.5 ± 10.2%
viability at 25 µM [1]: 95.2 ± 10.6%
viability at 50 µM [1]: 70.4 ± 10.5%

Oc1cc(-c2ccc3c(c2)OCO3)nc2ccnn12 [Compound 4i]
viability at 10 µM [2]: 96.6 ± 3.36%
viability at 25 µM [2]: 89.1 ± 3.51%
viability at 50 µM [2]: 73.5 ± 6.69%

COc1ccc(-c2cc(OCc3cn([C@@H]4O[C@H](COC(C)=O)[C@H](OC(C)=O)[C@H](OC(C)=O)[C@H]4OC(C)=O)nn3)n3nccc3n2)cc1 [Compound 10b, (2R,3S,4S,5R,6R)-2-(acetoxymethyl)-6-(4-(((5-(4-methoxyphenyl)pyrazolo[1,5-a]pyrimidin-7-yl)oxy)methyl)-1H-1,2,3-triazol-1-yl)tetrahydro-2H-pyran-3,4,5-triyl triacetate]
viability at 10 µM [1]: 92.5 ± 9.39%
viability at 25 µM [1]: 85.2 ± 8.63%
viability at 50 µM [1]: 70.5 ± 6.24%

Source: PMC10766964, “Copper-catalyzed synthesis of pyrazolo[1,5-a]pyrimidine based triazole-linked glycohybrids: mechanistic insights and bio-applications” (Scientific Reports, 2024)
